Experimental data published in patent publication US12297194B2, “N2-phenylpyrimidine-2,4-diamine compounds, and preparation methods and methods of use thereof” (BRIDGE BIOTHERAPEUTICS, INC., priority 2021, dated 2025).

Experiments:
Type in all cases: cell-based, murine
[1] = molecular target: Ba/F3 EGFR Wild-type (Homo sapiens, UniProt P00533); experiment: CellTiter-Glo cell viability, Ba/F3 EGFR wild-type cells; settings: 72 hours, read-out: Ba/F3 EGFR mutant cell (IC50, nM) WT
How it was run: (§1)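 Luminescent ATP read-out (CellTiter-Glo) after 72 h compound exposure, 0–2000 nM dilution series. Cells plated 2500/well, dosed 24 h post-seeding. IC50 from luminescence curves.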

[2] = molecular target: Ba/F3 EGFR L858R/C797S mutants (Homo sapiens, UniProt P00533, C797S/L858R, cells depend on it); experiment: CellTiter-Glo cell viability, Ba/F3 EGFR L858R/C797S cells; settings: 72 hours, read-out: Ba/F3 EGFR mutant cell (IC50, nM) L/C
Ba/F3 EGFR L858R/C797S mutants, sequence (P00533 whole entry C797S/L858R): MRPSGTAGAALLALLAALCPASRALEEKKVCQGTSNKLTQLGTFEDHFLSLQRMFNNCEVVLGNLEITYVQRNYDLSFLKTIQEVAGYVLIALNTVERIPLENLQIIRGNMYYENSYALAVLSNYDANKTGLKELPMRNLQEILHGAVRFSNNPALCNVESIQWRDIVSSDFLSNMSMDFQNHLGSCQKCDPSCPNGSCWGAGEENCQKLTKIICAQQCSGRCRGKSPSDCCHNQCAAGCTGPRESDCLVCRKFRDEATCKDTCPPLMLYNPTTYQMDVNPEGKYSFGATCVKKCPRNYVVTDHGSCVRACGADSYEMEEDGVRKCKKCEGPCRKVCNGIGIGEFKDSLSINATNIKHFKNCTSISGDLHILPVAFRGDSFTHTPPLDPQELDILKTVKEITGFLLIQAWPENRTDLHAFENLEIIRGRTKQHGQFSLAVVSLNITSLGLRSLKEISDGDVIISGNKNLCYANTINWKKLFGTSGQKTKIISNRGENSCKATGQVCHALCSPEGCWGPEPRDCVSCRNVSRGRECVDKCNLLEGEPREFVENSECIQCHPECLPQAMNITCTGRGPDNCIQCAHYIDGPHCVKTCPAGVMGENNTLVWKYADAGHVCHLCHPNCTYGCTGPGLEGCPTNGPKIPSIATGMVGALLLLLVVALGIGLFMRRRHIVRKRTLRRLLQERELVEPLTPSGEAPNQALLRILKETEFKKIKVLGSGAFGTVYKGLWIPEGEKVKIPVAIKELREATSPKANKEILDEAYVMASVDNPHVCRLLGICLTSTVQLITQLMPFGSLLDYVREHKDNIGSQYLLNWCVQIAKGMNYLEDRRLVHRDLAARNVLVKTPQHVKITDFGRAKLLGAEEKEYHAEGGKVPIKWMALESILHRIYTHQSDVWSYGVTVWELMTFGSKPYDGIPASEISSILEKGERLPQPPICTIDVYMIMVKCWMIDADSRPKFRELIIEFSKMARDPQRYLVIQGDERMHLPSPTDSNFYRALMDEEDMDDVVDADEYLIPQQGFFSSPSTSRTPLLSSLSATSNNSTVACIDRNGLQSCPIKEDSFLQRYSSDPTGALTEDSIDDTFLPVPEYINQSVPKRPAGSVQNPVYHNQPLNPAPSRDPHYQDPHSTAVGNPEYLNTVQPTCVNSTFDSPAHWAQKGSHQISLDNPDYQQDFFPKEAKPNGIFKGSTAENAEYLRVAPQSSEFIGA
How it was run: as §1

[3] = molecular target: Ba/F3 EGFR L858R/T790M/C797S mutants (Homo sapiens, UniProt P00533, T790M/C797S/L858R, cells depend on it); experiment: CellTiter-Glo cell viability, Ba/F3 EGFR L858R/T790M/C797S cells; settings: 72 hours, read-out: Ba/F3 EGFR mutant cell (IC50, nM) L/T/C
How it was run: as §1

[4] = molecular target: Ba/F3 EGFR Del19/T790M mutants (Homo sapiens, UniProt P00533, T790M, cells depend on it, form not given); experiment: CellTiter-Glo cell viability, Ba/F3 EGFR Del19/T790M cells; settings: 72 hours, read-out: Ba/F3 EGFR mutant cell (IC50, nM) D/T
Ba/F3 EGFR Del19/T790M mutants, sequence (P00533 with tags, fused parts or gaps DEL746-750/T790M, form open): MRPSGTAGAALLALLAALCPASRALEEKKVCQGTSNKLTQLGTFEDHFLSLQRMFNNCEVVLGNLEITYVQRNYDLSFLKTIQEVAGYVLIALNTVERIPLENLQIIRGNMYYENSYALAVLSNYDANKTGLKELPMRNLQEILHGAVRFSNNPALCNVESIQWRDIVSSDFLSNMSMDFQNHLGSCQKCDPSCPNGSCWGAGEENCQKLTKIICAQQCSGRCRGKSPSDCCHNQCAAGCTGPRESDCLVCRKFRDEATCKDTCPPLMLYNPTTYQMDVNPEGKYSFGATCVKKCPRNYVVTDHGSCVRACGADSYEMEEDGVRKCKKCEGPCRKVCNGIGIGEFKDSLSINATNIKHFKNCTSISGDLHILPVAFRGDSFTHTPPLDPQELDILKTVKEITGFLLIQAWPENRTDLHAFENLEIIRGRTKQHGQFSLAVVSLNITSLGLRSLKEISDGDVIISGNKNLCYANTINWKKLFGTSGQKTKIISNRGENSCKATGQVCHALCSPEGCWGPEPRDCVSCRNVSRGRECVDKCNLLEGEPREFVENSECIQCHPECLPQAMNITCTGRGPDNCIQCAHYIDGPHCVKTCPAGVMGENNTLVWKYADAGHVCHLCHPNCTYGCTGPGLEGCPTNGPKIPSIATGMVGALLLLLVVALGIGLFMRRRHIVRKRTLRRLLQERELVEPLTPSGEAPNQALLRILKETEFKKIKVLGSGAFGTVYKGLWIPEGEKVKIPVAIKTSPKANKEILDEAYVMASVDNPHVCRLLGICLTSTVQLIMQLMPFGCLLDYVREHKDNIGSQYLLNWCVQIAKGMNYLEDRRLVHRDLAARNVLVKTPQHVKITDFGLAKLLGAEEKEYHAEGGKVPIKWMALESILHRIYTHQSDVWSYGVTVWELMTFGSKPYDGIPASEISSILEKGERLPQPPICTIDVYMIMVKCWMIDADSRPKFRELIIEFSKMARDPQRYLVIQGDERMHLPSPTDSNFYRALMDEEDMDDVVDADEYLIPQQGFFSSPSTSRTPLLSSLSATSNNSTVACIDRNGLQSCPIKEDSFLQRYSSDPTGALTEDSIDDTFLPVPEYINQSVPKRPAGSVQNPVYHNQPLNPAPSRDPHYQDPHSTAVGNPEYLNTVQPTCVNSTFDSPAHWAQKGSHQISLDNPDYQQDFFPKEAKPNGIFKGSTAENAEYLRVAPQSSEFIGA
How it was run: as §1

[5] = molecular target: Ba/F3 EGFR Del19/C797S mutants (Homo sapiens, UniProt P00533, C797S, cells depend on it, form not given); experiment: CellTiter-Glo cell viability, Ba/F3 EGFR Del19/C797S cells; settings: 72 hours, read-out: Ba/F3 EGFR mutant cell (IC50, nM) D/C
Ba/F3 EGFR Del19/C797S mutants, sequence (P00533 with tags, fused parts or gaps DEL746-750/C797S, form open): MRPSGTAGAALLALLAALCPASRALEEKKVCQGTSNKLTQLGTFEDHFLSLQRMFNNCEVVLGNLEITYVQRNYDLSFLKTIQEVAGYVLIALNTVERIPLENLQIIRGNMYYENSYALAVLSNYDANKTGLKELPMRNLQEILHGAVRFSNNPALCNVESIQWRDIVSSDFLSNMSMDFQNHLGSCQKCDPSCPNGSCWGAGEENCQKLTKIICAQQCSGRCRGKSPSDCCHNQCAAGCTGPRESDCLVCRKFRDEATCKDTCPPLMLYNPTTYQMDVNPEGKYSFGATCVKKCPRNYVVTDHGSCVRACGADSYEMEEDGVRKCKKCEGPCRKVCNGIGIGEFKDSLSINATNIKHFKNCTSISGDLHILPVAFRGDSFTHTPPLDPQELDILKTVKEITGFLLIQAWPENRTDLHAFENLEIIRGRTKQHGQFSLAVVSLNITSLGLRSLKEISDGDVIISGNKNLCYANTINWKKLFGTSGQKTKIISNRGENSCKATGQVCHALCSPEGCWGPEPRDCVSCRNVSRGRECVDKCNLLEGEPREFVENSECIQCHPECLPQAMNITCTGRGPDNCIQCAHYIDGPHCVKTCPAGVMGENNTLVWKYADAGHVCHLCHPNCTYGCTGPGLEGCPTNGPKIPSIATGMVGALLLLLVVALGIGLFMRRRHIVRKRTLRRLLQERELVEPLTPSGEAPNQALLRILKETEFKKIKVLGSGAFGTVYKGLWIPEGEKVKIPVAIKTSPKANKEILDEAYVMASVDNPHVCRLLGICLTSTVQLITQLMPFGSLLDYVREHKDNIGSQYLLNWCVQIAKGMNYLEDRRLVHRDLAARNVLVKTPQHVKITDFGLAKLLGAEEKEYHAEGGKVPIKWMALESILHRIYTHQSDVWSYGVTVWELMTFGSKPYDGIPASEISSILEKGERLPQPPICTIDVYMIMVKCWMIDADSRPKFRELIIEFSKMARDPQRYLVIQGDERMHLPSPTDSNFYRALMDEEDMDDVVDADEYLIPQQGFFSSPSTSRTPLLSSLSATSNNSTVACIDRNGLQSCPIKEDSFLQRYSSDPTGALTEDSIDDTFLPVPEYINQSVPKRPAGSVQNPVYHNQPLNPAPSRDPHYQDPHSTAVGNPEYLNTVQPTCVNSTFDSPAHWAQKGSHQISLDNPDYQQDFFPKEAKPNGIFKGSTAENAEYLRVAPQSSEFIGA
How it was run: as §1

[6] = molecular target: Ba/F3 EGFR Del19/T790M/C797S mutants (Homo sapiens, UniProt P00533, T790M/C797S, cells depend on it, form not given); experiment: CellTiter-Glo cell viability, Ba/F3 EGFR Del19/T790M/C797S cells; settings: 72 hours, read-out: Ba/F3 EGFR mutant cell (IC50, nM) D/T/C
Ba/F3 EGFR Del19/T790M/C797S mutants, sequence (P00533 with tags, fused parts or gaps DEL746-750/T790M/C797S, form open): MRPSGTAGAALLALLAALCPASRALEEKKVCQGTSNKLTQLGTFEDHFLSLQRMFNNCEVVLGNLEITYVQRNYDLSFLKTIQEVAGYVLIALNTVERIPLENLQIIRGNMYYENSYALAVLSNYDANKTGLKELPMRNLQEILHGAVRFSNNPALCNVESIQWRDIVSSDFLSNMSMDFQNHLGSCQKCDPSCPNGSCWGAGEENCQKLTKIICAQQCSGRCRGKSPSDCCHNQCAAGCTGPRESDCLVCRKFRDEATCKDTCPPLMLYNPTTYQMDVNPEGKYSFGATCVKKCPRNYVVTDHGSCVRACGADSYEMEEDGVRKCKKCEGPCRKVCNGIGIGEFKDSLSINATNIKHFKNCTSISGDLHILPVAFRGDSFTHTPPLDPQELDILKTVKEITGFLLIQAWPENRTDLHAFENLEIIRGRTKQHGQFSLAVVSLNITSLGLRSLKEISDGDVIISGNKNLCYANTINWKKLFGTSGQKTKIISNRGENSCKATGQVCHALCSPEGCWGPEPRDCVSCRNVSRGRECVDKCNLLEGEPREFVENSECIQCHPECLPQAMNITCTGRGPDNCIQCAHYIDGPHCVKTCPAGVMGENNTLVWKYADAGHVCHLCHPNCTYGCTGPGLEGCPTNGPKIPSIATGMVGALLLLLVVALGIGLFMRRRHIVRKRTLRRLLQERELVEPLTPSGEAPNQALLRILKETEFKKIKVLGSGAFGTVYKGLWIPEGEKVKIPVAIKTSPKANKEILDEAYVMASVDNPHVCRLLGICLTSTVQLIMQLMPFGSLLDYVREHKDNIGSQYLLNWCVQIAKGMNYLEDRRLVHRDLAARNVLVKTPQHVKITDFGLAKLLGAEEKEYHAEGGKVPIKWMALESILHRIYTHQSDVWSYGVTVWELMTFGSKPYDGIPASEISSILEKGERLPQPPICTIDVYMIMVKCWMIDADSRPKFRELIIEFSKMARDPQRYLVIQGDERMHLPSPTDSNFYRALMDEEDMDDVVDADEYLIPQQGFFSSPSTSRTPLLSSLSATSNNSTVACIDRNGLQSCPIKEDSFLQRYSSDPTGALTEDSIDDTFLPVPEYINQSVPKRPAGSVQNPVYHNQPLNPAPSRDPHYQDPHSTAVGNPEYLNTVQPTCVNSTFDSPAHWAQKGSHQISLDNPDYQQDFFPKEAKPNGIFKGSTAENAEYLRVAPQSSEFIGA
How it was run: as §1

| Compound | GI50 [1] [nM] | GI50 [2] [nM] | GI50 [3] [nM] | GI50 [4] [nM] | GI50 [5] [nM] | GI50 [6] [nM] |
| --- | --- | --- | --- | --- | --- | --- |
| CCc1cc(Nc2ncc(Cl)c(Nc3ccc4nccnc4c3NS(C)(=O)=O)n2)c(OC)cc1N1CCC(N2CC3CCC2CN3C)CC1 (stereo not drawn) [Example A45, N-(6-((5-chloro-2-((5-ethyl-2-methoxy-4-(4-(5-methyl-2,5-diazabicyclo[2.2.2]octan-2-yl)piperidin-1-yl)phenyl)amino)pyrimidin-4-yl)amino)quinoxalin-5-yl)methanesulfonamide] | 734 | 103 | 71 | 9 | 10 | 7 |
| CCc1cc(Nc2ncc(Br)c(Nc3ccc4nccnc4c3NS(C)(=O)=O)n2)c(OC)cc1N1CCC(N2CC3CCC2CN3C)CC1 (stereo not drawn) [Example A46, N-(6-((5-bromo-2-((5-ethyl-2-methoxy-4-(4-(5-methyl-2,5-diazabicyclo[2.2.2]octan-2-yl)piperidin-1-yl)phenyl)amino)pyrimidin-4-yl)amino)quinoxalin-5-yl)methanesulfonamide] | 739 | 113 | 43 | 7 | 12 | 8 |
| CCc1cc(Nc2ncc(Cl)c(Nc3ccc4nccnc4c3N(C)S(C)(=O)=O)n2)c(OC)cc1N1CCC(N2CC3CCC2CN3C)CC1 (stereo not drawn) [Example A47, N-(6-((5-chloro-2-((5-ethyl-2-methoxy-4-(4-(5-methyl-2,5-diazabicyclo[2.2.2]octan-2-yl)piperidin-1-yl)phenyl)amino)pyrimidin-4-yl)amino)quinoxalin-5-yl)-N-methylmethanesulfonamide] | 730 | 125 | 64 | 17 | 7 | 25 |
| CCc1cc(Nc2ncc(Br)c(Nc3ccc4nccnc4c3N(C)S(C)(=O)=O)n2)c(OC)cc1N1CCC(N2CC3CCC2CN3C)CC1 (stereo not drawn) [Example A48, N-(6-((5-bromo-2-((5-ethyl-2-methoxy-4-(4-(5-methyl-2,5-diazabicyclo[2.2.2]octan-2-yl)piperidin-1-yl)phenyl)amino)pyrimidin-4-yl)amino)quinoxalin-5-yl)-N-methylmethanesulfonamide] | 601 | 112 | 28 | 9 | 6 | 17 |
| CCc1cc(Nc2ncc(Br)c(Nc3ccc4nccnc4c3N(C)S(C)(=O)=O)n2)c(OC)cc1N1CCN(C2CCN(C)CC2)CC1 [Example A49, N-(6-((5-bromo-2-((5-ethyl-2-methoxy-4-(4-(1-methylpiperidin-4-yl)piperazin-1-yl)phenyl)amino)pyrimidin-4-yl)amino)quinoxalin-5-yl)-N-methylmethane sulfonamide] | 243 | 15 | 64 | 4 | 10 | 4 |
| COc1cc(N2CCC(N(C)C)CC2)c(C)cc1Nc1ncc(Br)c(Nc2ccc3nccnc3c2NS(C)(=O)=O)n1 [Example B1, N-(6-((5-bromo-2-((4-(4-(dimethylamino)piperidin-1-yl)-2-methoxy-5-methylphenyl)amino)pyrimidin-4-yl)amino)quinoxalin-5-yl)methanesulfonamide] | 302 | 64 | 28 | 8 | 38 | 7 |
| COc1cc(N2CCC(N(C)C)CC2)c(C)cc1Nc1ncc(Br)c(Nc2ccc3nccnc3c2N(C)S(C)(=O)=O)n1 [Example B7, N-(6-((5-bromo-2-((4-(4-(dimethylamino)piperidin-1-yl)-2-methoxy-5-methylphenyl)amino)pyrimidin-4-yl)amino)quinoxalin-5-yl)-N-methylmethanesulfonamide] | 595 | 98 | 33 | 21 | 34 | 8 |
| COc1cc(C2CCN(C(C)=O)CC2)ccc1Nc1ncc(Cl)c(Nc2ccc3nccnc3c2NS(C)(=O)=O)n1 [Example B8, N-(6-((2-((4-(1-acetylpiperidin-4-yl)-2-methoxyphenyl)amino)-5-chloropyrimidin-4-yl)amino)quinoxalin-5-yl)methanesulfonamide] | 729 | 554 | 861 | 424 | 320 | 292 |
| COc1cc(C2CCNCC2)c(C)cc1Nc1ncc(Br)c(Nc2ccc3nccnc3c2NS(C)(=O)=O)n1 [Example B11, N-(6-((5-bromo-2-((2-methoxy-5-methyl-4-(piperidin-4-yl)phenyl)amino)pyrimidin-4-yl)amino)quinoxalin-5-yl)methanesulfonamide] | 1270 | 781 | 264 | 443 | 583 | 725 |
| CCCc1cc(Nc2ncc(Cl)c(Nc3ccc4nccnc4c3NS(C)(=O)=O)n2)c(OC)cc1N1CCC(N(C)C)CC1 [Example B12, N-(6-((5-chloro-2-((4-(4-(dimethylamino)piperidin-1-yl)-2-methoxy-5-propylphenyl)amino)pyrimidin-4-yl)amino)quinoxalin-5-yl)methanesulfonamide] | 431 | 87 | 36 | 19 | 29 | 104 |
| CCCc1cc(Nc2ncc(Br)c(Nc3ccc4nccnc4c3NS(C)(=O)=O)n2)c(OC)cc1N1CCC(N(C)C)CC1 [Example B13, N-(6-((5-bromo-2-((4-(4-(dimethylamino)piperidin-1-yl)-2-methoxy-5-propylphenyl)amino)pyrimidin-4-yl)amino)quinoxalin-5-yl)methanesulfonamide] | 468 | 114 | 22 | 13 | 41 | 60 |
| CCc1cc(Nc2ncc(Br)c(Nc3ccc4nccnc4c3N(C)S(C)(=O)=O)n2)c(OC)cc1N1CCC(N(C)C)CC1 [Example B14, N-(6-((5-bromo-2-((4-(4-(dimethylamino)piperidin-1-yl)-5-ethyl-2-methoxyphenyl)amino)pyrimidin-4-yl)amino)quinoxalin-5-yl)-N-methylmethanesulfonamide] | 427 | 41 | 23 | 3 | 6 | 8 |
| COc1cc(C2CCNCC2)ccc1Nc1ncc(Cl)c(Nc2ccc3nccnc3c2NS(C)(=O)=O)n1 [Example B15, N-(6-((5-chloro-2-((2-methoxy-4-(piperidin-4-yl)phenyl)amino)pyrimidin-4-yl)amino)quinoxalin-5-yl)methanesulfonamide] | > 2000 | 1540 | 2140 | 1310 | 581 | 746 |
| COc1cc(N2CCNCC2)ccc1Nc1ncc(Cl)c(Nc2ccc3nccnc3c2NS(C)(=O)=O)n1 [Example B16, N-(6-((5-chloro-2-((2-methoxy-4-(piperazin-1-yl)phenyl)amino)pyrimidin-4-yl)amino)quinoxalin-5-yl)methanesulfonamide] | 1890 | 778 | 823 | 402 | 361 | 741 |
